Data published in PubChem BioAssay AID328 (DTP/NCI, 2004).
Several values for one entry are separate records, joined by “and”; a condition that tells them apart may be missing. Equal entries are not always repeated. Inconclusive results and toxic doses are left out.

Test system: BDF1 mice, P388 leukemia ip, median survival T/C
Assay: NCI In Vivo Anticancer Drug Screen. Data for tumor model P388 Leukemia (intraperitoneal) in B6D2F1 (BDF1) mice
Settings: endpoint: median survival time, higher = longer survival
Method in brief: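 In tumour-bearing mice, survival after compound treatment is set against the vehicle group and given as a quotient.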

[1] = dose: 6.25 mg/kg/injection, schedule: Q01DX009 (ip), vehicle: saline with Tween-80
[2] = dose: 25.0 mg/kg/injection, schedule: Q04DX003 (ip), vehicle: saline with Tween-80
[3] = dose: 100.0 mg/kg/injection, schedule: Q01DX009 (ip), vehicle: saline with Tween-80
[4] = dose: 50.0 mg/kg/injection, schedule: Q01DX009 (ip), vehicle: saline
[5] = dose: 100.0 mg/kg/injection, schedule: Q01DX009 (ip), vehicle: saline
[6] = dose: 25.0 mg/kg/injection, schedule: Q04DX003 (ip), vehicle: Klucel (hydroxypropylcellulose) (HPC)
[7] = dose: 50.0 mg/kg/injection, schedule: Q04DX003 (ip), vehicle: Klucel (hydroxypropylcellulose) (HPC)
[8] = dose: 12.5 mg/kg/injection, schedule: Q01DX009 (ip), vehicle: Klucel (hydroxypropylcellulose) (HPC)
[9] = dose: 100.0 mg/kg/injection, schedule: Q04DX003 (ip), vehicle: saline with Tween-80
[10] = dose: 200.0 mg/kg/injection, schedule: Q04DX003 (ip), vehicle: saline with Tween-80
[11] = dose: 400.0 mg/kg/injection, schedule: Q04DX003 (ip), vehicle: saline with Tween-80
[12] = dose: 50.0 mg/kg/injection, schedule: Q01DX009 (ip), vehicle: saline with Tween-80
[13] = dose: 200.0 mg/kg/injection, schedule: Q01DX009 (ip), vehicle: saline with Tween-80

## Cc1nc(N)nc(N)c1-c1ccc(Cl)c(Cl)c1
dose: 0.85 mg/kg/injection, schedule: Q01DX009 (ip), vehicle: saline with Tween-80
  T/C: 100 % of control
dose: 1.0 mg/kg/injection, schedule: Q02DX005 (ip), vehicle: Klucel (hydroxypropylcellulose) (HPC)
  T/C: 103 % of control
dose: 1.0 mg/kg/injection, schedule: Q02DX009 (ip), vehicle: Klucel (hydroxypropylcellulose) (HPC)
  T/C: 107 % of control
dose: 2.0 mg/kg/injection, schedule: Q02DX005 (ip), vehicle: Klucel (hydroxypropylcellulose) (HPC)
  T/C: 111 % of control
dose: 2.0 mg/kg/injection, schedule: Q02DX009 (ip), vehicle: Klucel (hydroxypropylcellulose) (HPC)
  T/C: 117 % of control
dose: 3.0 mg/kg/injection, schedule: Q01DX009 (ip), vehicle: saline with Tween-80
  T/C: 122 % of control
dose: 4.0 mg/kg/injection, schedule: Q02DX005 (ip), vehicle: Klucel (hydroxypropylcellulose) (HPC)
  T/C: 101 % of control
dose: 4.0 mg/kg/injection, schedule: Q02DX009 (ip), vehicle: Klucel (hydroxypropylcellulose) (HPC)
  T/C: 121 % of control
dose: 4.5 mg/kg/injection, schedule: Q01DX009 (ip), vehicle: saline with Tween-80
  T/C: 118 % of control
[1]
  T/C: 86 % of control
dose: 8.0 mg/kg/injection, schedule: Q02DX005 (ip), vehicle: Klucel (hydroxypropylcellulose) (HPC)
  T/C: 97 % of control
dose: 8.0 mg/kg/injection, schedule: Q02DX009 (ip), vehicle: Klucel (hydroxypropylcellulose) (HPC)
  T/C: 154 % of control
dose: 16.0 mg/kg/injection, schedule: Q02DX009 (ip), vehicle: Klucel (hydroxypropylcellulose) (HPC)
  T/C: 117 % of control
[2]
  T/C: 172 % of control
dose: 37.5 mg/kg/injection, schedule: Q04DX003 (ip), vehicle: saline with Tween-80
  T/C: 118 % of control

## Cc1cc(-c2ccccc2)c2ccccc2c1N(CC(=O)O)S(=O)(=O)c1ccccc1
dose: 44.0 mg/kg/injection, schedule: Q01DX009 (ip), vehicle: saline with Tween-80
  T/C: 95 % of control and 105 % of control
dose: 66.0 mg/kg/injection, schedule: Q01DX009 (ip), vehicle: saline with Tween-80
  T/C: 110 % of control
[3]
  T/C: 95 % of control and 120 % of control
dose: 150.0 mg/kg/injection, schedule: Q01DX009 (ip), vehicle: saline with Tween-80
  T/C: 121 % of control

## COC1N(C2CC(O)C(CO)O2)C(=O)NC(=O)C1(F)Br (stereo not drawn)
dose: 5.0 mg/kg/injection, schedule: Q01DX009 (ip), vehicle: saline
  T/C: 90 % of control
dose: 10.0 mg/kg/injection, schedule: Q01DX009 (ip), vehicle: saline
  T/C: 109 % of control
dose: 20.0 mg/kg/injection, schedule: Q01DX009 (ip), vehicle: saline
  T/C: 109 % of control
dose: 40.0 mg/kg/injection, schedule: Q01DX009 (ip), vehicle: saline
  T/C: 122 % of control
[4]
  T/C: 111 % of control
[5]
  T/C: 113 % of control
dose: 100.0 mg/kg/injection, schedule: Q04DX003 (ip), vehicle: saline
  T/C: 104 % of control
dose: 200.0 mg/kg/injection, schedule: Q01DX009 (ip), vehicle: saline
  T/C: 106 % of control
dose: 200.0 mg/kg/injection, schedule: Q04DX003 (ip), vehicle: saline
  T/C: 122 % of control
dose: 400.0 mg/kg/injection, schedule: Q01DX009 (ip), vehicle: saline
  T/C: 94 % of control
dose: 400.0 mg/kg/injection, schedule: Q04DX003 (ip), vehicle: saline
  T/C: 150 % of control

## CN(C)C(=S)SC(=S)N(C)C
[6]
  T/C: 100 % of control
[7]
  T/C: 95 % of control
dose: 100.0 mg/kg/injection, schedule: Q01DX001 (ip), vehicle: Klucel (hydroxypropylcellulose) (HPC)
  T/C: 100 % of control and 104 % of control
dose: 100.0 mg/kg/injection, schedule: Q04DX003 (ip), vehicle: Klucel (hydroxypropylcellulose) (HPC)
  T/C: 109 % of control
dose: 200.0 mg/kg/injection, schedule: Q01DX001 (ip), vehicle: Klucel (hydroxypropylcellulose) (HPC)
  T/C: 100 % of control
dose: 400.0 mg/kg/injection, schedule: Q01DX001 (ip), vehicle: Klucel (hydroxypropylcellulose) (HPC)
  T/C: 104 % of control and 108 % of control

## O=C(CCCN1CCC(O)(c2cccc(C(F)(F)F)c2)CC1)c1ccc(F)cc1
[8]
  T/C: 120 % of control
dose: 12.5 mg/kg/injection, schedule: Q04DX003 (ip), vehicle: Klucel (hydroxypropylcellulose) (HPC)
  T/C: 112 % of control
dose: 18.75 mg/kg/injection, schedule: Q04DX003 (ip), vehicle: Klucel (hydroxypropylcellulose) (HPC)
  T/C: 96 % of control
dose: 25.0 mg/kg/injection, schedule: Q01DX009 (ip), vehicle: Klucel (hydroxypropylcellulose) (HPC)
  T/C: 114 % of control
[6]
  T/C: 122 % of control
dose: 50.0 mg/kg/injection, schedule: Q01DX009 (ip), vehicle: Klucel (hydroxypropylcellulose) (HPC)
  T/C: 117 % of control
[7]
  T/C: 121 % of control
dose: 150.0 mg/kg/injection, schedule: Q04DX003 (ip), vehicle: Klucel (hydroxypropylcellulose) (HPC)
  T/C: 96 % of control

## O=C(Nc1ccc2c(c1)OCO2)O/N=C\c1ccccn1
[9]
  T/C: 118 % of control
[10]
  T/C: 95 % of control
[11]
  T/C: 100 % of control

## O=c1oc2ccccc2c2c1Cc1c(oc3ccc4ccccc4c3c1=O)O2
[12]
  T/C: 91 % of control
[3]
  T/C: 95 % of control
[13]
  T/C: 92 % of control

## Cc1ccc(S(=O)(=O)N(C)c2ccc(C#N)c(Cl)c2Cl)cc1
[9]
  T/C: 90 % of control
[10]
  T/C: 86 % of control
[11]
  T/C: 90 % of control

## C[n+]1ccc2ccccc2c1CCCc1nccc2ccccc12
[1]
  T/C: 100 % of control
dose: 12.5 mg/kg/injection, schedule: Q01DX009 (ip), vehicle: saline with Tween-80
  T/C: 120 % of control
dose: 25.0 mg/kg/injection, schedule: Q01DX009 (ip), vehicle: saline with Tween-80
  T/C: 116 % of control

## CC(=O)OCC(=O)[C@@]1(O)CC[C@H]2[C@@H]3CCC4=CC(=O)[C@H](C)C[C@]4(C)[C@H]3[C@@H](O)C[C@@]21C
dose: 100.0 mg/kg/injection, schedule: Q01DX009 (ip), vehicle: Klucel (hydroxypropylcellulose) (HPC)
  T/C: 118 % of control
dose: 200.0 mg/kg/injection, schedule: Q01DX009 (ip), vehicle: Klucel (hydroxypropylcellulose) (HPC)
  T/C: 109 % of control
dose: 400.0 mg/kg/injection, schedule: Q01DX009 (ip), vehicle: Klucel (hydroxypropylcellulose) (HPC)
  T/C: 118 % of control

## Nc1nc(N)c(N=O)c(Nc2ccc(Cl)c(Cl)c2)n1
[12]
  T/C: 109 % of control
[3]
  T/C: 109 % of control
[13]
  T/C: 95 % of control

## C=CCC1(CCC)C(=O)NC(=O)NC1=O
[2]
  T/C: 91 % of control
dose: 50.0 mg/kg/injection, schedule: Q04DX003 (ip), vehicle: saline with Tween-80
  T/C: 91 % of control
[9]
  T/C: 95 % of control

## C=CCc1ccccc1OC
[12]
  T/C: 118 % of control
[3]
  T/C: 104 % of control

## CSc1sc2ccccc2[n+]1C
dose: 25.0 mg/kg/injection, schedule: Q01DX009 (ip), vehicle: saline
  T/C: 100 % of control and 104 % of control
[4]
  T/C: 90 % of control and 120 % of control
[5]
  T/C: 86 % of control and 119 % of control

## CCc1cc2c(cc1C(=O)CBr)C(C)(C)CCC2(C)C
dose: 3.12 mg/kg/injection, schedule: Q01DX009 (ip), vehicle: Klucel (hydroxypropylcellulose) (HPC)
  T/C: 110 % of control
dose: 3.8 mg/kg/injection, schedule: Q04DX003 (ip), vehicle: Klucel (hydroxypropylcellulose) (HPC)
  T/C: 113 % of control
dose: 5.7 mg/kg/injection, schedule: Q04DX003 (ip), vehicle: Klucel (hydroxypropylcellulose) (HPC)
  T/C: 113 % of control
dose: 6.25 mg/kg/injection, schedule: Q01DX009 (ip), vehicle: Klucel (hydroxypropylcellulose) (HPC)
  T/C: 105 % of control
[8]
  T/C: 110 % of control
dose: 23.0 mg/kg/injection, schedule: Q04DX003 (ip), vehicle: Klucel (hydroxypropylcellulose) (HPC)
  T/C: 100 % of control
dose: 52.5 mg/kg/injection, schedule: Q04DX003 (ip), vehicle: Klucel (hydroxypropylcellulose) (HPC)
  T/C: 120 % of control

## CC1(C)CCc2c(ccc(C(=O)/C=C\c3ccccc3)c2O)O1
dose: 1.25 mg/kg/injection, schedule: Q01DX009 (ip), vehicle: Klucel (hydroxypropylcellulose) (HPC)
  T/C: 109 % of control
dose: 2.5 mg/kg/injection, schedule: Q01DX009 (ip), vehicle: Klucel (hydroxypropylcellulose) (HPC)
  T/C: 107 % of control
dose: 5.0 mg/kg/injection, schedule: Q01DX009 (ip), vehicle: Klucel (hydroxypropylcellulose) (HPC)
  T/C: 102 % of control
dose: 10.0 mg/kg/injection, schedule: Q01DX009 (ip), vehicle: Klucel (hydroxypropylcellulose) (HPC)
  T/C: 107 % of control
dose: 20.0 mg/kg/injection, schedule: Q01DX009 (ip), vehicle: Klucel (hydroxypropylcellulose) (HPC)
  T/C: 100 % of control
dose: 40.0 mg/kg/injection, schedule: Q01DX009 (ip), vehicle: Klucel (hydroxypropylcellulose) (HPC)
  T/C: 91 % of control
